The record followed here is a melting point compilation (Tetko et al.).

The melting point is the temperature, or range, at which the solid turns liquid. In the case of `CC(C)CC(NC(=O)C(O)C(N)Cc1ccccc1)C(=O)O` (stereo not given), the melting point was determined as 233 °C. As for `O=Cc1cc([N+](=O)[O-])cc(Br)c1O`, the figure is 149 °C; as for `c1ccc2c(c1)oc1ccccc12`, 86.5 °C; as for `CS(=O)(=O)c1nc(Br)c(C#N)c(-c2ccc(Cl)cc2)c1Cl`, 158 °C. Next, `NCc1ccc(C(=O)O)cc1`: 300 °C; `CC12CCC(/C(=C/N(Cl)c3ccccc3)C1=O)C2(C)C` (stereo not given): 102 to 103 °C; `C[C@H](C[C@H](I)C(C)(C)C)S(=O)(=O)c1ccccc1`: 74 °C. Next, `N#Cc1ccc([N+](=O)[O-])cc1C#N`: 140 to 144 °C; `CCOC(=O)c1sc(N)nc1C(F)(F)F`: 186 °C. The compound `C#CC(C)O` (stereo not given) showed a melting point of -3 °C.

For the compound `CC(C)CCOc1ccc(NC(=S)Nc2ccc(OCCC(C)C)cc2)cc1`, the melting point was 146 °C.

`CCCCCCCOC(=O)CC` registered a melting point of -50.9 °C. As for `COC1=CC(=O)NC1`, the figure is 132 °C. For the compound `O=[N+]([O-])c1ccc(C2Nn3c(COc4ccccc4)nnc3S2)cc1` (stereo not given), the melting point is 184 °C. `O=C(O)CNC(CO)(CO)CO` came in with a melting point of 187 °C. Next, `O=[N+]([O-])c1ccc(S(=O)(=O)N2CCCC2)cc1`: 151 to 153 °C; `COc1ccccc1-c1nnc2n1NC(c1ccccc1OC)S2` (stereo not given): 173 °C; `COC(=O)[C@@H]1C[C@@H]2CSCN2[C@@]12C(=O)c1cccc3cccc2c13`: 172 °C. Next, `O=C(CCl)Nc1ccc(F)cc1`: 131 to 132 °C. On to `O=C(O)c1ccc(O)c(C(=O)O)c1`, for which the melting point is 310 °C. `CC(C)(C)OC(=O)N1CCN(c2ccc(C(=O)O)cn2)CC1`: the melting point lay in the range of 298 to 300 °C. As for `CCOC(=O)CSCCC1NC(C(=O)O)CS1` (stereo not given), the figure is 142 °C; as for `c1ccc2c(c1)CCCN2`, 20 °C. Next, `N#Cc1c(-c2ccccc2)c2c(=O)[nH]n(-c3ccccc3)c2[nH]c1=S`: 142 °C; `N#CCc1c[nH]c2ccccc12`: 36 °C; `Cc1cccc(C(N)=O)c1C`: 157 °C. Take `O=C(Nc1ccc(Br)cc1)c1cc(Br)ccc1O`: the melting point is 242 °C.

On to `Clc1ccc2c(c1)N=C(N1CCN(C3=Nc4cc(Cl)ccc4Nc4ccccc43)CC1)c1ccccc1N2`, for which the melting point was in the range of 333 to 335 °C. As for `FC(F)(F)c1nc2ccccc2[nH]1`, the figure is 210 °C; as for `Cc1noc(N)c1C`, 119 to 120 °C. In the case of `O=[N+]([O-])c1ncccc1Br`, the melting point amounted to 104 °C. Consider `Cc1n[nH]c(C)c1C(=O)O`, for which the melting point fell in the range of 273 to 275 °C. Next, `CC(=O)Nc1ccc2c(OC(C)=O)c(-c3ccccc3)[nH]c2c1`: 219 °C; `O=c1c(Cl)c(Cl)cnn1Cc1ccccc1F`: 110 to 112 °C.

`COc1cc(C(c2ccc(C)o2)c2ccc(C)o2)c([N+](=O)[O-])cc1OC` registered a melting point of 98 °C. Next, `CC(C)(C)OC(=O)C(C(=O)Cc1ccccc1)c1ccccc1` (stereo not given): 82.2 to 83.5 °C; `O=C1OC(=O)[C@H]2[C@@H]1[C@@H]1C3C=CC([C@H]21)[C@H]1C(=O)OC(=O)[C@@H]31`: 355 to 357 °C. `O=[N+]([O-])c1cc(CCBr)c([N+](=O)[O-])cc1CCBr` had a melting point of 123 °C.

In turn, `ON=C(Cl)c1c(Cl)cccc1Cl` displayed a melting point of 85 to 89 °C.

In turn, `CCCCCCCCCCOC(C)=O` came in with a melting point of -15 °C. Next, `CN(C)C(C)(C)C`: -90 °C. In the case of `N#CCC(=O)N1CCCC1`, the melting point came to 72.5 °C. Next, `O=C(O)CCCC1CCCCC1`: 31 °C; `Nc1ccc(C(=O)O)c(N)c1`: 140 °C. For `Cc1c(C)n(C(=O)c2ccccc2)c2ccccc12`, the melting point was 98 °C. The compound `CCCCCCCCCCCC(=O)OCCOCCO` returned a melting point of 17.5 °C. For the compound `Cc1cc(C(F)(F)F)n2nc(N)c(/N=N/c3ccccc3Cl)c2n1`, the melting point worked out at 238 °C.

Regarding `CCOC(=O)c1sc(-c2ccc(C(F)(F)F)cc2)nc1C`, the melting point was in the range of 87 to 89 °C. As for `Cc1c(C)c(C)c(C(=O)c2ccccc2C(=O)O)c(C)c1C`, the figure is 278 to 282 °C. As for `O=C(O)c1ccccc1O`, the figure is 157 °C. In turn, `CCCCCCCCCCC(=O)CC` registered a melting point of 31 °C. As for `C[C@@]12C=CC(=O)N1[C@@H](c1ccccc1)CO2`, the figure is 88 to 92 °C; as for `Nc1cccc2nsnc12`, 68 °C; as for `CC1=CCC(C(=O)O)C1(C)C` (stereo not given), 40.5 °C.

Turning to `Nc1cccc2cc[nH]c12`, the melting point was 91 °C. As for `CNCc1nn(C)c2ccccc12`, the figure is 37 to 40 °C; as for `O=C(Nc1cccnc1Cl)c1ccccc1`, 91 to 92 °C.

Regarding `O=C(O)CCc1ccccc1Cl`, the melting point was determined as 95.5 °C.

`CC(C(O)c1ccccc1)N(C)CC=Cc1ccccc1` (stereo not given) had a melting point of 75 °C. With `COc1cc(C(=O)O)c([N+](=O)[O-])c(OC)c1OC`, the melting point lay within 166 to 169 °C.

Compound `NC(=O)c1ccc(F)cc1F` had a melting point of 161 °C. As for `COc1ccc2occc2c1`, the figure is 31 to 33 °C; as for `O=C(O)c1ccsc1Br`, 174 to 175 °C.

As for `CCCCC(=O)OCC(=O)C1C(C)CC2C3CC(F)C4=CC(=O)C=CC4(C)C3(F)C(O)CC21C` (stereo not given), the melting point amounted to 195 °C.

`COc1ccc(OC)c2c1CC2=O`: the melting point is 105 °C.

`Oc1nsc(SCc2ccccc2)n1` registered a melting point of 123 to 125 °C. The compound `O=C1CNCCCNCC(=O)NCCCN1` showed a melting point of 141 °C. As for `CC(=O)c1c(C)cn(C)c1C`, the figure is 81 to 82 °C.

Turning to `O=C(O)c1c(Cl)c(Cl)c(Cl)c(Cl)c1C(=O)Nc1cccc(Cl)c1Cl`, the melting point stood at 198 °C. `COc1ccc(C23C(=C(c4ccccc4)c4ccccc4)C4CC2C3(C)C4(C)C)cc1` (stereo not given) returned a melting point of 124 °C.

Compound `Cc1nn(C(C)(C)C)c(C)c1C=O` had a melting point of 56 to 61 °C. In the case of `O=[N+]([O-])c1cc([N+](=O)[O-])c(C(Cl)C(Cl)c2ccccc2)cc1/C=C\c1ccccc1` (stereo not given), the melting point amounted to 181 °C. As for `Nc1ccn(C2OC(COP(=O)(O)O)C(O)C2O)c(=O)n1` (stereo not given), the figure is 233 °C; as for `O=C1/C(=C/c2ccccc2O)SC(=S)N1CN1CCOCC1`, 166 °C. In turn, `Cc1cc(C=O)ccc1O` yielded a melting point of 119 °C. The compound `Nc1c([N+](=O)[O-])cc(Cl)cc1[N+](=O)[O-]` came in with a melting point of 147 °C. Compound `Cc1nsc(-c2ccccc2)n1` gave a melting point of 50 to 52 °C. As for `Cc1nc(C2CCN(C(=O)OC(C)(C)C)CC2)sc1C(=O)O`, the figure is 124 to 128 °C; as for `O=C(Cl)c1cccc(-c2nccs2)c1`, 80 to 80.5 °C.

`Clc1cncc(Oc2ccc(Cl)nn2)c1`: the melting point was in the range of 112 to 114 °C. As for `Cn1cnc(S(N)(=O)=O)c1`, the figure is 222 to 224 °C; as for `FC(F)=C(F)C(F)(F)F`, -156 °C; as for `Oc1ccc2ccccc2c1CN1CCCCC1`, 93 to 94 °C. As for `OCCN1CCN(Cc2ccc(F)cc2)CC1`, the figure is 55 to 56 °C; as for `C=C1CCC(O)CC1=CC=C1CCCC2(C)C1CCC2C(C)CCCC(C)C` (stereo not given), 84.5 °C; as for `CC(C)(C)OC(=O)NC(Cc1cccc2ccccc12)C(=O)O` (stereo not given), 145 to 148 °C. As to `COc1ncc(F)c2nc(S(=O)(=O)Nc3c(F)cccc3F)nn12`, the melting point was 194 °C. As for `O=C(O)c1ccccc1S(=O)(=O)O`, the figure is 142 °C; as for `CC(C)(C)NCC(O)COc1ccccc1C1CCCC1` (stereo not given), 68 °C. In turn, `CC(CC(C)(C)O)OC(O)C(Cl)(Cl)Cl` (stereo not given) came in with a melting point of 103 °C. As for `C=C1C(=O)C23C(OC(C)=O)CC4C(C)(C)CCC(OC(C)=O)C4(C)C2C(OC(C)=O)CC1C3OC(C)=O` (stereo not given), the figure is 277 °C. With `O=C(C=P(c1ccccc1)(c1ccccc1)c1ccccc1)OCc1ccccc1`, the melting point was in the range of 120 to 127 °C. Next, `OCC1C2C=CC(C2)C1CO` (stereo not given): 85 to 85.5 °C; `Oc1c(F)cc(Br)cc1Br`: 32 °C; `O=C(O)C=Cc1ccc(F)c(C(F)(F)F)c1`: 143 °C. `O=C(c1ccccc1)c1cccc2ccccc12` displayed a melting point of 76 °C.

As to `C=C[Si](C)(C)O[Si](C)(C)C=C`, the melting point is -99.7 °C. As for `CCc1nn(C)c(C(=O)NCc2ccc(C(C)(C)C)cc2)c1Cl`, the figure is 65 °C; as for `COc1cccc(N2C(=O)C=CC2=O)c1`, 62 to 66 °C. In turn, `O=P(O)(OCc1ccccc1)OCc1ccccc1` came in with a melting point of 80 °C. As for `ClC(COCC(Cl)C(Cl)(Cl)Cl)C(Cl)(Cl)Cl` (stereo not given), the figure is -50 °C; as for `Clc1ccc(Br)c(Cl)n1`, 70 °C; as for `CC(C)(C)SC1(C#N)CC1(C#N)SC(C)(C)C` (stereo not given), 104 °C. The compound `ClCc1cc(-c2ccco2)on1` came in with a melting point of 47 to 49 °C. Next, `CC(C)(SC(=O)N1CCCCC1)c1ccccc1`: 39.1 °C; `Cc1ccc(C=C(Oc2ccccc2)c2nc3ccccc3s2)cc1`: 161 to 165 °C; `c1ccc(C/C(=N\Nc2ccccc2)c2cccc3ccccc23)cc1`: 101 to 102 °C. `NC(=S)COc1cccc(Cl)c1` showed a melting point of 122 to 124 °C. As for `O=C(OC(C(=O)O)C(OC(=O)c1ccccc1)C(=O)O)c1ccccc1` (stereo not given), the figure is 155 °C. Next, `Clc1c(Cl)c(Cl)c2c(c1Cl)Oc1ccccc1O2`: 188 °C.
